What was measured:
[1] = test system: 6-OHDA-lesioned mice; assay: Motor activity study in 6-OHDA-lesioned mice; format: in vivo; conditions: 5 mg/kg i.p.
[2] = target: T1, D1 (Homo sapiens, UniProt P21728); assay: D1R GS-mediated cAMP accumulation GloSensor assay; format: cell-based; conditions: for Emax: read-out: GS-cAMP EMAX; for activity in GS-cAMP accumulation (in words): GloSensor
[3] = target: T1, D1; assay: BRET β-arrestin2 recruitment assay; format: cell-based; conditions: for Emax: read-out: β-arrestin2 EMAX; for activity in β-arrestin2 recruitment (in words): BRET

T1 sequence (P21728 whole entry): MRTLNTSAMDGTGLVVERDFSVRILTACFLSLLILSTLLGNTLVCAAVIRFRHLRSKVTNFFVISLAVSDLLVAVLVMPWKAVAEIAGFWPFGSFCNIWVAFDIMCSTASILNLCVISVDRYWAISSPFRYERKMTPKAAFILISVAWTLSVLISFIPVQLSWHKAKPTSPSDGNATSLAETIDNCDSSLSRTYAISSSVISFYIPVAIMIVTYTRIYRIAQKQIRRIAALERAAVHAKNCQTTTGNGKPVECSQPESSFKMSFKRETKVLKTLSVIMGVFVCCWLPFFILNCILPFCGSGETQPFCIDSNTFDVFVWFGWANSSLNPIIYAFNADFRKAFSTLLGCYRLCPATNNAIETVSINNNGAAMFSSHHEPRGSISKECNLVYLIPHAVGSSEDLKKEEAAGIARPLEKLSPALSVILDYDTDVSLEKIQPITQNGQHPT

| Compound | EC50 [2] [nM] | Emax [2] [%] | EC50 [3] [nM] | Emax [3] [%] | activity in β-arrestin2 recruitment (in words) [3] | activity in GS-cAMP accumulation (in words) [2] | forward locomotion compared to vehicle after 1 h ([1]; 61–90 min interval) | number of contralateral rotations vs vehicle ([1]; 90 min) |
| --- | --- | --- | --- | --- | --- | --- | --- | --- |
| Oc1cc2c(c(Cl)c1O)CCNCC2c1ccccc1 (stereo not drawn) [SKF81297, reference compound] | – | – | – | – | – | – | no longer displayed significantly increased forward locomotion | significant increases |
| Cc1cc(Oc2nccc(Cl)c2C(F)(F)F)ccc1-c1c(C)c(=O)[nH]c(=O)n1C [Compound 34, 6-(4-((4-Chloro-3-(trifluoromethyl)pyridin-2-yl)oxy)-2-methyl-phenyl)-1,5-dimethylpyrimidine-2,4(1H,3H)-dione] | 105 | 82 | – | – | no activity | – | – | – |
| Cc1cc(-c2c(C)c(=O)[nH]c(=O)n2C)ccc1Oc1nccc2occc12 [Compound 26, 6-(4-(Furo[3,2-c]pyridin-4-yloxy)-3-methylphenyl)-1,5-dimethylpyrimidine-2,4(1H,3H)-dione] | 33 | 100 | – | – | no activity | – | – | – |
| Cc1cc(Oc2ncccc2C(F)(F)F)ccc1-c1c(C)c(=O)[nH]c(=O)n1C [Compound 32, 1,5-Dimethyl-6-(2-methyl-4-((3-(trifluoromethyl)pyridin-2-yl)-oxy)phenyl)pyrimidine-2,4(1H,3H)-dione] | – | 118 | – | 30 | – | – | – | – |
| Cc1cc(Oc2ccccn2)ccc1-c1c(C)c(=O)[nH]c(=O)n1C [Compound 30, 1,5-Dimethyl-6-(2-methyl-4-(pyridin-2-yloxy)phenyl)pyrimidine-2,4(1H,3H)-dione] | – | 107 | – | 40 | – | – | – | – |
| Cc1cc(Oc2nccc3occc23)ccc1-c1cc[nH]c(=O)c1 [Compound 3, 4-(4-(Furo[3,2-c]pyridin-4-yloxy)-2-methylphenyl)pyridin-2(1H)-one] | 176 | 81 | – | – | no activity | – | – | – |
| Cc1cc(O)ccc1-c1c(C)c(=O)[nH]c(=O)n1C [Compound 28, 6-(4-Hydroxy-2-methylphenyl)-1,5-dimethylpyrimidine-2,4-(1H,3H)-dione] | – | – | – | – | inactive | inactive | – | – |
| Cc1cc(Oc2nccc3occc23)ccc1-c1cc(=O)[nH]cn1 [Compound 5, 6-(4-(Furo[3,2-c]pyridin-4-yloxy)-2-methylphenyl)pyrimidin-4(3H)-one] | 133 | 96 | > 10000 | – | – | – | – | – |
| Cc1cc(Oc2nccc3occc23)ccc1C1=CCN(C)CC1 [Compound 1, 4-(3-Methyl-4-(1-methyl-1,2,3,6-tetrahydropyridin-4-yl)-phenoxy)furo[3,2-c]pyridine] | – | – | – | – | largely inactive | largely inactive | – | – |
| Cc1cc(Oc2nccc3occc23)ccc1-c1cc(N)nc(N)n1 [Compound 8, 6-(4-(Furo[3,2-c]pyridin-4-yloxy)-2-methylphenyl)pyrimidine-2,4-diamine] | > 10000 | – | – | – | no activity | – | – | – |
| COc1ccc(-c2c(C)c(=O)[nH]c(=O)n2C)c(C)c1 [Compound 29, 6-(4-Methoxy-2-methylphenyl)-1,5-dimethylpyrimidine-2,4-(1H,3H)-dione] | – | – | – | – | inactive | inactive | – | – |
| Cc1cc(Oc2nccc3occc23)ccc1-c1c(C)cn[nH]c1=O [Compound 13, 4-(4-(Furo[3,2-c]pyridin-4-yloxy)-2-methylphenyl)-5-methylpyridazin-3(2H)-one] | 205 | 82 | – | – | no activity | – | – | – |

The next lines start with results.

| EC50 [2] [nM] | Emax [2] [%] | EC50 [3] [nM] | Emax [3] [%] | activity in β-arrestin2 recruitment (in words) [3] | activity in GS-cAMP accumulation (in words) [2] | Compound | forward locomotion compared to vehicle after 1 h ([1]; 61–90 min interval) | number of contralateral rotations vs vehicle ([1]; 90 min) |
| --- | --- | --- | --- | --- | --- | --- | --- | --- |
| 0.08 | 96 | 40 | 75 | – | – | Cc1c(-c2ccc(Oc3nccc4occc34)cc2)n(C)c(=O)[nH]c1=O [Compound 27, 6-(4-(Furo[3,2-c]pyridin-4-yloxy)phenyl)-1,5-dimethylpyrimidine-2,4(1H,3H)-dione] | – | – |
| 0.5 | 84 | – | – | no activity | – | Cc1cc(Oc2nccc3occc23)ccc1-c1c(C)c(=O)[nH]c(=O)n1CC1CC1 [Compound 19, 1-(Cyclopropylmethyl)-6-(4-(furo[3,2-c]pyridin-4-yloxy)-2-methylphenyl)-5-methylpyrimidine-2,4(1H,3H)-dione] | – | – |
| 1.1 | 92 | 196 | 63 | – | – | Cc1cc(Oc2nccc3occc23)ccc1-c1cn[nH]c(=O)c1C [Compound 12, 5-(4-(Furo[3,2-c]pyridin-4-yloxy)-2-methylphenyl)-4-methylpyridazin-3(2H)-one] | – | – |
| 1.8 | 88 | 151 | 19 | – | – | Cc1cc(Oc2nccc3occc23)ccc1-c1c(C)cnc(=O)n1C [Compound 11, 6-(4-(Furo[3,2-c]pyridin-4-yloxy)-2-methylphenyl)-1,5-dimethylpyrimidin-2(1H)-one] | – | – |
| 7 | 104 | 13 | 30 | – | – | Cc1cc(Oc2nccc3sccc23)ccc1-c1c(C)c(=O)[nH]c(=O)n1C [Compound 39, 1,5-Dimethyl-6-(2-methyl-4-(thieno[3,2-c]pyridin-4-yloxy)-phenyl)pyrimidine-2,4(1H,3H)-dione] | – | – |
| 0.4 | 115 | > 10000 | – | – | – | Cc1cc(Oc2nccc3ccccc23)ccc1-c1c(C)c(=O)[nH]c(=O)n1C [Compound 38, 6-(4-(Isoquinolin-1-yloxy)-2-methylphenyl)-1,5-dimethylpyrimidine-2,4(1H,3H)-dione] | – | – |
| 0.08 | 95 | 13 | 65 | – | – | CCn1c(-c2ccc(Oc3nccc4occc34)cc2C)c(C)c(=O)[nH]c1=O [Compound 17, 1-Ethyl-6-(4-(furo[3,2-c]pyridin-4-yloxy)-2-methylphenyl)-5-methylpyrimidine-2,4(1H,3H)-dione] | – | – |
| 23 | 59 | – | – | no activity | – | COc1ccnc(Oc2ccc(-c3c(C)c(=O)[nH]c(=O)n3C)c(C)c2)c1C#N [Compound 33, 2-(4-(3,5-Dimethyl-2,6-dioxo-1,2,3,6-tetrahydropyrimidin-4-yl)-3-methylphenoxy)-4-methoxynicotinonitrile] | – | – |
| 2 | 108 | 52 | 27 | – | – | COc1ccnc(Oc2ccc(-c3c(C)c(=O)[nH]c(=O)n3C)c(C)c2)c1 [Compound 31, 6-(4-((4-Methoxypyridin-2-yl)oxy)-2-methylphenyl)-1,5-dimethylpyrimidine-2,4(1H,3H)-dione] | – | – |
| 9 | 78 | 2090 | 37 | – | – | Cc1cc(Oc2nccc3occc23)ccc1-c1cc(=O)[nH]c(=O)[nH]1 [Compound 9, 6-(4-(Furo[3,2-c]pyridin-4-yloxy)-2-methylphenyl)pyrimidine-2,4(1H,3H)-dione] | – | – |
| 0.8 | 82 | – | – | no activity | – | Cc1cc(Oc2nccc3occc23)ccc1-c1c(C)c(=O)[nH]c(=O)n1C1CCC1 [Compound 20, 1-Cyclobutyl-6-(4-(furo[3,2-c]pyridin-4-yloxy)-2-methylphenyl)-5-methylpyrimidine-2,4(1H,3H)-dione] | – | – |

From PMC6785188 (ACS chemical neuroscience, 2019)
